# Test results reported in patent US20260176277A1, “COMPOUNDS AND COMPOSITIONS AS eIF4E INHIBITORS AND USES THEREOF” (Ribometrix, Inc., priority 2022, published 2026).
# What was measured:
# [1] = target: T1, human eIF4E protein (Homo sapiens, UniProt P06730); experiment: Biochemical competitive binding assay (TR-FRET competition); conditions: recombinant 6xHIS-tagged human eIF4E, EDA-m7GDP-ATTO-647N probe; read-out: hEIF4E TR-FRET IC50
# T1 construct: purchased Novus NBP-45314
# Procedure: The potencies of compounds binding to human eIF4E protein were measured using a 384-well time-resolved fluorescence resonance energy transfer (TR-FRET) competition assay. The assay was performed in assay buffer containing 50 mM HEPES pH 7.5, 100 mM KCl, 0.02% Tween-20, and 0.1 mg/mL bovine serum albumin (BSA). The reaction volume was 10 μL and each reaction contained 4 nM recombinant 6×HIS-tagged human eIF4E protein (Novus, NBP-45314), 5 nM EDA-m7GDP-ATTO-647N (Jena Bioscience, NU-827-647N), 2.5 nM Europium conjugated Anti-6×HIS antibody (PerkinElmer, AD0402) and varying concentrations of compound. The final DMSO concentration was 1%.
# Compounds were prepared using 11-point, 4-fold serial dilutions in DMSO and 100 nL of diluted compounds were transferred to 384-well assay-ready plates. Recombinant human eIF4E protein at 2× final concentration (8 nM) was pre-incubated with Eu-anti-6×HIS antibody at 2× final concentration (5 nM) for 5 minutes, then 5 μL of the protein solution was added to assay-ready plates. The protein/compound mix was incubated for 15 minutes, after which 5 μL of a solution containing EDA-m7GDP-ATTO-647N probe at 2× final concentration (10 nM) was added. After a subsequent 15-minute incubation, time-resolved fluorescence of assay plates was measured using a Clariostar Plus microplate reader (BMG Labtech) and TR-FRET values were calculated by taking a ratio of the 665 to 620 wavelength signals. After normalization to the average of DMSO control and maximum inhibition control wells, concentration-response data were plotted and standard 4-parameter curve fitting (PEI Signals) was utilized to determine IC50 values.
# [2] = system: cap-dependent translation in Flp-In-293 reporter cells; experiment: Cellular cap-dependent translation inhibition dual luciferase assay (DLA); format: cell-based; conditions: Homo sapiens, ratio of Fluc (cap-dependent) to Rluc (IRES) luminescence, 24 hours of compound treatment
# T1 sequence (P06730 whole entry): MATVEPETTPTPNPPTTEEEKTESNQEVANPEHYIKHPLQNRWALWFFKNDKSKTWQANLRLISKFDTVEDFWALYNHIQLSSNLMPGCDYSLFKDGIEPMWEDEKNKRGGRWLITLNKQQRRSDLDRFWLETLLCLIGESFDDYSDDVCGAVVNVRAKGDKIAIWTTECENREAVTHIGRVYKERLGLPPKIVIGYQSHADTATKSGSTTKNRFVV
IC50 [1] [µM],SMILES,IC50 [2] [µM]
< 0.4,Cc1nc2c(c(=O)n1CCOc1ccc(Cl)cc1-c1cccc(C(=O)O)c1)CN(C)CC2 [Compound 1],
< 0.4,Cc1nc2c(c(=O)n1CCOc1ccc(Cl)cc1-c1ccnc(C(=O)O)c1)CN(C)CC2 [Compound 9],> 20
< 0.4,Cc1cc(-c2cc(Cl)ccc2OCCn2c(C)nc3c(c2=O)CN(c2cc(F)ccc2F)CC3)c2scc(C(=O)O)c2n1 [Compound 19],< 10
< 0.4,"Cc1cc(-c2cc(Cl)ccc2OCCn2c(C)nc3c(c2=O)CN(CC(F)(F)F)CC3)c2scc(C(=O)NS(C)(=O)=O)c2n1 [Compound 25, 7-[5-chloranyl-2-[2-[2-methyl-4-oxidanylidene-6-[2,2,2-tris(fluoranyl)ethyl]-7,8-dihydro-5H-pyrdo[4,3-d]pyrimidin-3-yl]ethoxy]phenyl]-5-methyl-N-methylsulfonyl-thieno[3,2-b]pyridine-3-carboxamide; 2,2,2-tris(fluoranyl) acetic acid]",< 10
10 to 100,CN1CCc2ncn(CCOc3ccc(Cl)cc3-c3cccc(C(=O)O)c3)c(=O)c2C1 [Compound 3],
< 0.4,Cc1nc2c(c(=O)n1CCOc1ccc(Br)cc1-c1cccc(C(=O)O)c1)CN(C)CC2 [Compound 16],> 20
< 0.4,Cc1nc2c(c(=O)n1CCOc1ccc(Cl)cc1-c1cccc(C(=O)O)c1F)CN(C)CC2 [Compound 12],> 20
< 0.4,Cc1cc(-c2cc(Cl)ccc2OCCn2c(C)nc3c(c2=O)CN(c2ccccc2F)CC3)c2scc(C(=O)O)c2n1 [Compound 18],< 10
0.4 to 10,CC(=O)N1CCc2nc(C)n(CCOc3ccc(Cl)cc3-c3cccc(C(=O)O)c3)c(=O)c2C1 [Compound 7],
< 0.4,"Cc1cc(-c2cc(Cl)ccc2OCCn2c(C)nc3c(c2=O)CN(C)CC3)c2scc(C(=O)O)c2n1 [Compound 29, 7-[5-chloranyl-2-[2-[2,6-di(methyl)-4-oxidanylidene-7,8-dihydro-5H-pyrido[4,3-d]pyrimidin-3-yl]ethoxy]phenyl]-5-methyl-thieno[3,2-b]pyridine-3-carboxylic acid]",< 10
< 0.4,COCCN1CCc2nc(C)n(CCOc3ccc(Cl)cc3-c3ccnc(C(=O)O)c3)c(=O)c2C1 [Compound 10],> 20
< 0.4,Cc1nc2c(c(=O)n1CCOc1ccc(Cl)cc1-c1ccnc3c(C(=O)O)csc13)CN(C)CC2 [Compound 8],< 10
< 0.4,"Cc1cc(-c2cc(Cl)ccc2OCCn2c(C)nc3c(c2=O)CN(C)CCO3)c2scc(C(=O)O)c2n1 [Compound 30, 7-[5-chloranyl-2-[2-[2,6-di(methyl)-4-oxidanylidene-7,8-dihydro-5H-pyrimido[5,4-f][1,4]oxazepin-3-yl]ethoxy]phenyl]-5-methyl-thieno[3,2-b]pyridine-3-carboxylic acid; 2,2,2-tris(fluorenyl) acetic acid]",< 10
< 0.4,CCN1CCc2nc(C)n(CCOc3ccc(Cl)cc3-c3cccc(C(=O)O)c3)c(=O)c2C1 [Compound 4],10 to 20
< 0.4,"Cc1cc(-c2cc(Cl)ccc2OCCn2c(C)nc3c(c2=O)CN(CC(F)(F)F)CC3)c2scc(C(=O)O)c2n1 [Compound 24, 7-[5-chloranyl-2-[2-[2-methyl-4-oxidany-lidene-6-[2,2,2-tris(fluoranyl)ethyl]-7,8-dihydro-5H-pyrido[4,3-d]pyrimidin-3-yl]ethoxy]phenyl]-5-methyl-thieno[3,2-b]pyridine-3-carboxylic acid; 2,2,2-tris(fluoranyl) acetic acid]",< 10
10 to 100,Cc1nc2c(c(=O)n1CCOc1ccc(Cl)cc1-c1cccc(C(=O)O)c1)CN(C1COC1)CC2 [Compound 11],> 20

IC50 [1] [µM],SMILES,IC50 [2] [µM]
0.4 to 10,Cc1nc2c(c(=O)n1CCOc1cnc(Cl)cc1-c1ccnc(C(=O)O)c1)CN(C)CC2 [Compound 17],> 20
0.4 to 10,COCCN1CCc2nc(C)n(CCOc3ccc(Cl)cc3-c3cccc(C(=O)O)c3)c(=O)c2C1 [Compound 6],
< 0.4,Cc1cc(-c2cc(Cl)ccc2OCCn2c(C)nc3c(c2=O)CN(Cc2ccncc2)CC3)c2scc(C(=O)O)c2n1 [Compound 20],< 10
< 0.4,"COc1cc(N2CCc3nc(C)n(CCOc4ccc(Cl)cc4-c4cc(C)nc5c(C(=O)O)csc45)c(=O)c3C2)ccn1 [Compound 23, 7-[5-chloranyl-2-[2-[6-(2-methoxy-4-pyridyl)-2-methyl-4-oxidanylidene-7,8-dihydro-5H-pyrido[4,3-d]pyrimidin-3-yl]ethoxy]phenyl]-5-methyl-thieno[3,2-b]pyridine-3-carboxylic acid; 2,2,2-tris(fluoranyl) acetic acid]",< 10
10 to 100,Cc1nc2c(c(=O)n1CCOc1ccc(Cl)cc1-c1ccc(C(=O)O)cc1)CN(C)CC2 [Compound 2],
< 0.4,Cc1cc(-c2cc(Cl)ccc2OCCn2c(C)nc3c(c2=O)CN(c2ccn4ncnc4c2)CC3)c2scc(C(=O)O)c2n1 [Compound 22],10 to 20
0.4 to 10,Cc1nc2c(c(=O)n1CCOc1ccc(Cl)cc1-c1ccnc(-c3n[nH]c(=O)o3)c1)CN(C)CC2 [Compound 15],> 20
< 0.4,"Cc1cc(-c2cc(Cl)ccc2OCCn2c(C)nc3c(c2=O)CN(C)CC3)c2scc(C(=O)NS(C)(=O)=O)c2n1 [Compound 28, 7-[5-chloranyl-2-[2-[2,6-di(methyl)-4-oxidanylidene-7,8-dihydro-5H-pyrido[4,3-d]pyrimidin-3-yl]ethoxy]phenyl]-5-methyl-N-methylsulfonyl-thieno[3,2-b]pyridine-3-carboxamide; 2,2,2-tris(fluoranyl)acetic acid]",< 10
< 0.4,Cc1nc2c(c(=O)n1CCOc1ccc(Cl)cc1-c1ccnn3c(C(=O)O)ccc13)CN(C)CC2 [Compound 14],< 10
10 to 100,Cc1nc2c(c(=O)n1CC#Cc1ccc(Cl)cc1-c1ccnc3c(C(=O)O)csc13)CN(C)CC2 [Compound 31],> 20
< 0.4,"Cc1cc(-c2cc(Cl)ccc2OCCn2c(C)nc3c(c2=O)CN(C)CC3)c2ccc(C(=O)O)n2n1 [Compound 26, 4-[5-chloranyl-2-[2-[2,6-di(methyl)-4-oxidanylidene-7,8-dihydro-5H-pyrido[4,3-d]pyrimidin-3-yl]ethoxy]phenyl]-2-methyl-pyrrolo[1,2-b]pyridazine-7-carboxylic acid]",< 10
< 0.4,"Cc1cc(-c2cc(Cl)ccc2OCCn2c(C)nc3c(c2=O)CN(C)CC3)c2ccc(C(=O)NS(C)(=O)=O)n2n1 [Compound 27, 4-[5-chloranyl-2-[2-[2,6-di(methyl)-4-oxidanylidene-7,8-dihydro-5H-pyrido[4,3-d]pyrimidin-3-yl]ethoxy]phenyl]-2-methyl-N-methylsulfonyl-pyrrolo[1,2-b]pyridazine-7-carboxamide]",< 10
< 0.4,Cc1cc(-c2cc(Cl)ccc2OCCn2c(C)nc3c(c2=O)CN(c2ccnc4ccncc24)CC3)c2scc(C(=O)O)c2n1 [Compound 21],< 10
< 0.4,Cc1nc2c(c(=O)n1CCOc1ccc(Cl)cc1-c1ccnc(C(=O)NS(C)(=O)=O)c1)CN(C)CC2 [Compound 13],> 20
0.4 to 10,Cc1nc2c(c(=O)n1CCOc1ccc(Cl)cc1-c1cccc(C(=O)O)c1)CN(C1CCOCC1)CC2 [Compound 5],> 20
